These results are taken from patent publication US4797415A, “Benzofuran derivatives and use thereof for treating hyperuricemia” (Kotobuki Seiyaku Company Limited, priority 1982, dated 1989).

Where two headings read alike, the source gives them in different places.

Series [1] relates to phenol red retention in circulation. The experiment in a line: Uricosuric activity by phenol red retention test in mice. Type of series: in vivo, male mice. The conditions noted are these: Mus musculus, 1 h. Here is the method:
(§1) Blood samples were collected from the retro-orbital plexus into heparinized capillary tubes 60 minutes after the phenol red injection. The retention of phenol red in circulation was determined according to the method described in J. Med. Pharmaceu.
Benzobromarone was administered subcutaneously to mice in an amount of 200 mg./kg. as a control or standard.

For a further series, the system named is phenol red retention. The experiment in a line: Uricosuric activity by phenol red method in rats. Format: in vivo. The following applies: p.o. 100 mg/kg. Here is the method: as §1
The same test of uricosuric activity was applied to rats.

Another series can be described thus: in vivo. The conditions noted are these: mouse, po, p.o. in mice. The text has this:
In general, the compounds related to this invention have a potent uriosuric activiity and some of them are considered promising for clinical use. The toxicity of these compounds is much lower than that of the typical uricosuric agent: benzbromarone.

The mark [2] stands for this setting: po, mice, p.o. 200 mg/kg, 30 min before 75 mg/kg phenol red, blood 60 min after phenol red, read-out: phenol red retention, percentage by comparison with the control group, P.O. (200 mg/kg).
The mark [3] stands for this setting: sc, mice, s.c. 200 mg/kg, 30 min before 75 mg/kg phenol red, blood 60 min after phenol red, read-out: phenol red retention, percentage by comparison with the control group, S.C. (200 mg/kg).

As to `CCc1oc2ccccc2c1C(=O)c1cc(Br)c(O)c(Br)c1` [Benzbromarone, benzbromarone, reference compound], in series [1] (sc, read-out: phenol red retention, percentage by comparison with the control group, S.C. (200 mg/kg)), the response vs control in vivo at 200 mg/kg turned out to be 184%. In addition, in the series with phenol red retention, the “Phenol Red Retention % in Rats 100 mg/kg (p.o.)” value (“Phenol Red Retention % … (p.o.)” below) is 163.9 ± 25.0%. For the same molecule, the LD50 in “in vivo” came to 361 mg/kg.
Regarding `CCc1oc2ccccc2c1C(=O)c1ccc(OCC(=O)O)cc1` [Compound 3, 4-(2-ethyl-3-benzofuroyl)phenoxyacetic acid], the response vs control in vivo at 200 mg/kg in series [1] (setting [2]) is 175 ± 15.5%; in series [1] (setting [3]), 169 ± 18.1%. Moreover, in the series with phenol red retention, the “Phenol Red Retention % … (p.o.)” value was found to be 194.6 ± 29.7%. Also, the LD50 in the series “in vivo” amounted to 2110 mg/kg.
`CCc1oc2ccccc2c1C(=O)c1ccc(OCC(=O)O)c(Cl)c1` [Compound 22, 2-chloro-4-(2-ethyl-3-benzofuroyl)phenoxyacetic acid]: the response vs control in vivo at 200 mg/kg was 190 ± 26.3% in series [1] (setting [2]) and 211 ± 33.3% in series [1] (setting [3]). Also, in the series on phenol red retention, the “Phenol Red Retention % … (p.o.)” value came out at 217.2 ± 17.2%.
The like results for `CCc1oc2ccccc2c1C(=O)c1ccc(OCC(=O)O)c(C)c1` [Compound 25, 2-methyl-4-(2-ethyl-3-benzofuroyl)phenoxyacetic acid] were, in that order, 200 ± 25%, 189 ± 27.8% and 208.1 ± 27.0%.
Regarding `CCc1oc2ccccc2c1C(=O)c1ccc(OCC(=O)O)c(C)c1C` [Compound 35, 2,3-dimethyl-4-(2-ethyl-3-benzofuroyl)phenoxyacetic acid], the response vs control in vivo at 200 mg/kg in series [1] (setting [2]) was 319 ± 14.3%. For the same molecule, the “Phenol Red Retention % … (p.o.)” value in the series with phenol red retention is reported as 269.0 ± 31.0%.
In the case of `CCc1oc2ccccc2c1C(=O)c1cc(C)c(OCC(=O)O)cc1C` [Compound 39], the response vs control in vivo at 200 mg/kg in series [1] (setting [2]) was 410 ± 28.6%. Also, the “Phenol Red Retention % … (p.o.)” value in the series on phenol red retention was 175.7 ± 21.6%.
For the molecule `CCc1oc2ccccc2c1C(=O)c1cc(C)c(OCc2nnn[nH]2)c(C)c1` [Compound 48, 5-[2,6-dimethyl-4-(2-ethyl-3-benzofuroyl)phenoxymethyl]tetrazole], the response vs control in vivo at 200 mg/kg in series [1] (setting [2]) amounted to 296 ± 56%.

What is called LD50 is the dose at which mortality reaches 50%. High values mean a less toxic substance, low ones a more toxic substance.
